Laboratory results reported in patent publication US12630498B2 (Genzyme Corporation, priority 2019, dated 2026).

Assays:
[1] = biological target: T1, human Cystic Fibrosis Transmembrane Conductance Regulator (CFTR) harboring the ΔF508 mutation (Homo sapiens, UniProt P13569, DEL508-508); assay: H441 cell ΔF508-CFTR-HRP cell surface assay (Emax and EC50); assay type: cell-based; details: for Emax: NCI-H441, NA = Not active
T1 construct: expressed in transfected cells; host or cells: H441 carcinoma line (G418-selected)
T1 sequence (P13569 with tags, fused parts or gaps DEL508-508): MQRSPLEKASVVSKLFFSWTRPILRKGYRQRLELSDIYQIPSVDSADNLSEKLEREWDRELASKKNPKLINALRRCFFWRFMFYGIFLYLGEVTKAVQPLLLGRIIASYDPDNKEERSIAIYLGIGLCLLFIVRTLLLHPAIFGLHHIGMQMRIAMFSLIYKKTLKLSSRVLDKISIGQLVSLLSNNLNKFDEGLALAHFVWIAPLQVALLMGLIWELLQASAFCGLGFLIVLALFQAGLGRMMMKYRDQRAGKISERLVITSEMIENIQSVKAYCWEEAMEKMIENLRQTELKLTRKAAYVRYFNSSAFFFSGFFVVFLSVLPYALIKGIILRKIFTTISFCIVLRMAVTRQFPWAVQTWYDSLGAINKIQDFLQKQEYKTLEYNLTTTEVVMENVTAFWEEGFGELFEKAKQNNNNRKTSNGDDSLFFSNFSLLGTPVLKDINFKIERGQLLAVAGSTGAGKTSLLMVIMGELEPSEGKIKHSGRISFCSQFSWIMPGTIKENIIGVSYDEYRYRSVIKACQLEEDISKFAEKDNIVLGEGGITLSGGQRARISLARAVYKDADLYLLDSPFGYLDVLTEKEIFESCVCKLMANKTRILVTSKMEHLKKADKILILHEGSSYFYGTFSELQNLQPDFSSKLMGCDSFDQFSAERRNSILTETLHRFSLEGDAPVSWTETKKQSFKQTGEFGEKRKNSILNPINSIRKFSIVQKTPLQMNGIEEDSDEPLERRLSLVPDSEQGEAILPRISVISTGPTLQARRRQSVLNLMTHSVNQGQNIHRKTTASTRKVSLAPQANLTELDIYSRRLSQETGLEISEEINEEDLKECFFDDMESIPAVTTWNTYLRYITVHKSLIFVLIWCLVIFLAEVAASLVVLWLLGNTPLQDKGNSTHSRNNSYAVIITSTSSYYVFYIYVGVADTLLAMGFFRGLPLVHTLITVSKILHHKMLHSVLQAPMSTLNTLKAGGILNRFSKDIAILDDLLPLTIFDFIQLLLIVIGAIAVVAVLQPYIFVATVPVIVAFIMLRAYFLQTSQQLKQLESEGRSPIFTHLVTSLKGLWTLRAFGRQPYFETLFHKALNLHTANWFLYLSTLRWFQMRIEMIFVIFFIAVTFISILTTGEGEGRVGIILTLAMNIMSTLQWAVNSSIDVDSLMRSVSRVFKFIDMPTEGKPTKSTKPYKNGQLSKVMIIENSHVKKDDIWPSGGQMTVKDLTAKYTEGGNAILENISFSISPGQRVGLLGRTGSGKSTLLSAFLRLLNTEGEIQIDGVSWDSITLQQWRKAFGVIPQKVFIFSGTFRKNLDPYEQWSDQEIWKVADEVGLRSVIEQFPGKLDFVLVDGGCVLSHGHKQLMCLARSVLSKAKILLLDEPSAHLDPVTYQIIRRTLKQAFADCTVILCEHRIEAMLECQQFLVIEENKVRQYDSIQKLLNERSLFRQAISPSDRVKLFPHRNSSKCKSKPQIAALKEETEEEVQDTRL
Method in brief: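 H441 and 41o- bronchial epithelial cells expressing ΔF508-CFTR with an extracellular-loop-4 HRP tag were treated with a 15-point compound series (24.5–0.001 μM) for two nights, H441 at 27° C, 41o- at 37° C with 0.0005 mg/ml doxycycline. Surface HRP luminescence read; % of maximum VX809 signal and EC50 derived.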

[2] = biological target: T2, CFTR-mediated transepithelial chloride transport in primary human bronchial epithelial cells from a ΔF508 homozygous CF donor (Homo sapiens, UniProt P13569, DEL508-508); assay: TECC24 recording of CFTR-mediated transepithelial chloride transport in CF-HBE cells (AUC fold over DMSO); assay type: cell-based; details: test agent 10 μM, 48 hours incubation, AUC of forskolin-stimulated IEQ relative to DMSO
T2 construct: Primary human bronchial epithelial cells from a ΔF508 homozygous CF donor; host or cells: primary CF-HBE cells, ΔF508 homozygous donor
T2 sequence (P13569 with tags, fused parts or gaps DEL508-508): as above
Experimental: Example 316: TECC24 AUC Fold Over DMSO @ 10 uM
The effects of a test agent on CFTR-mediated transepithelial chloride transport was measured using TECC24 recording analysis. Test agents were solubilized in DMSO. Solubilized test agents were mixed with incubation medium containing DMEM/F12, Ultroser G (2%; Crescent Chemical, catalog #67042), Hyclone Fetal Clone II (2%; GE Healthcare, catalog #SH30066.02), bovine brain extract (0.25%; Lonza, catalog #CC-4098), insulin (2.5 μg/mL), IL-13 (10 ng/mL), hydrocortisone (20 nM), transferrin (2.5 μg/mL), triiodothyronine (500 nM), ethanolamine (250 nM), epinephrine (1.5 μM), phosphoethanolamine (250 nM), and retinoic acid (10 nM). Primary human bronchial epithelial cells from a ΔF508 homozygous CF donor (CF-HBE cells; from University of North Carolina Cystic Fibrosis Tissue Procurement Center), grown on Transwell HTS 24-well cell culture inserts (Costar, catalog #3378), were exposed to test agents or controls dissolved in incubation medium. The CF-HBE cells were cultured at 36.5° C. for 48 hours before TECC24 recordings were performed in the presence or absence of test agent, a positive control or vehicle (DMSO).
Following incubation, the transwell cell culture inserts containing the test agent or control-treated CF-HBE cells were loaded onto a TECC24 apparatus (TECC v7 or MTECC v2; EP Design) to record the transepithelial voltage (VT) and resistance (TEER) using 4 AgCl electrodes per well configured in current-clamp mode. The apical and basolateral bath solutions both contained (in mM) 140 NaCl, 5 KCl, 2 CaCl2), 1 MgCl2, 10 Hepes, and 10 glucose (adjusted to pH 7.4 with NaOH). To inhibit basal Na+ absorption, the ENaC inhibitor benzamil (10 μM) was added to the bath. Then, the adenylate cyclase activator, forskolin (10 μM), was added to the bath to activate CFTR. The forskolin-stimulated Cl-transport was halted by addition of CFTR inhibitor-172 (20 μM) to the bath at the end of the experiment to confirm specificity. VT and TEER recordings were digitally acquired at routine intervals using TECC or MTECC software (EP Design). VT and TEER were transformed into equivalent transepithelial Cl-current (IEQ), and the Area Under the Curve (AUC) of the IEQ time course between forskolin and CFTR inhibitor-172 addition was generated using Excel (Microsoft). Efficacy is expressed as the ratio of the test agent AUC divided by vehicle AUC. EC50s based on AUC are generated using the non-linear regression log(agonist) vs. response function in Prism software (GraphPad) with Hill Slope fixed=1.
If a test agent increased the AUC of the forskolin-stimulated IEQ relative to vehicle in CF-HBE cells, and this increase was inhibited by CFTR inhibitor-172, then the test agent was considered a CFTR corrector.

Structure (SMILES) | EC50 [1] | Emax [1] | TECC24 AUC fold over DMSO @10 μM [2]
O=C(N[C@H](C(=O)O)C1CCCC1)c1ccc2ccccc2c1OCc1ccc(SC(F)(F)F)cc1 [Example 114, (S)-2-cyclopentyl-2-(1-((4-((trifluoromethyl)thio)benzyl)oxy)-2-naphthamido)acetic Acid] | 2600 nM | 86.1% | C (“C” refers to AUC @10 uM <4)
O=C(N[C@H](C(=O)O)C1Cc2ccccc2C1)c1ccc2ccccc2c1OCc1ccc(C(F)(F)F)cc1 [Example 143, (S)-2-(2,3-dihydro-1H-inden-2-yl)-2-(1-((4-(trifluoromethyl)benzyl)oxy)-2-naphthamido)acetic Acid] | 1900 nM | 135% | B (“B” refers to AUC @10 uM between 4-6)
CC(C)(C)[C@@H](NC(=O)c1ccc2ccc(C(F)F)cc2c1OCc1ccc(OC(F)(F)F)cc1)C(=O)O [Example 264, (2R)-2-[[7-(difluoromethyl)-1-[[4-(trifluoromethoxy)phenyl]methoxy]naphthalene-2-carbonyl]amino]-3,3-dimethyl-butanoic Acid] | 1800 nM | 70.7% | B (“B” refers to AUC @10 uM between 4-6)
O=C(N[C@H](C(=O)O)C12CC(C(F)(F)F)(C1)C2)c1ccc2ccccc2c1OCc1ccc(SC(F)(F)F)cc1 [Example 17, (S)-2-(3-(trifluoromethyl)bicyclo[1.1.1]pentan-1-yl)-2-(1-((4-((trifluoromethyl)thio)benzyl)oxy)-2-naphthamido)acetic Acid] | 700 nM | 63.9% | C (“C” refers to AUC @10 uM <4)
O=C(N[C@H](C(=O)O)C(c1ccccc1)c1ccccc1)c1ccc2ccccc2c1OCc1ccc(OC(F)(F)F)cc1 [Example 189, (S)-3,3-diphenyl-2-(1-((4-(trifluoromethoxy)benzyl)oxy)-2-naphthamido)propanoic Acid] | 2400 nM | 14.3% | C (“C” refers to AUC @10 uM <4)
O=C(N[C@H](C(=O)O)C1CCCC1)c1ccc2ccccc2c1OCC1CCC(F)(F)CC1 [Example 155, (S)-2-cyclopentyl-2-(1-((4,4-difluorocyclohexyl)methoxy)-2-naphthamido)acetic Acid] | 4100 nM | 60.7% | C (“C” refers to AUC @10 uM <4)
CC(C)(C)C[C@H](NC(=O)c1ccc2cc(F)ccc2c1OCC1CCCCC1)C(=O)O [Example 205, (S)-2-(1-(cyclohexylmethoxy)-6-fluoro-2-naphthamido)-4,4-dimethylpentanoic Acid] | 4800 nM | 92.2% | C (“C” refers to AUC @10 uM <4)
CC1(C(NC(=O)c2ccc3ccccc3c2OCc2ccc(OC(F)(F)F)cc2)C(=O)O)CCCCC1 (stereo not drawn) [Example 1, 2-(1-methylcyclohexyl)-2-[[1-[[4-(trifluoromethoxy)phenyl]methoxy]naphthalene-2-carbonyl]amino]acetic Acid] | 700 nM | 164% | B (“B” refers to AUC @10 uM between 4-6)
CC(C)(C)[C@H](NC(=O)c1ccc2cc(F)ccc2c1OCC1CCCCC1)C(=O)O [Example 45, (S)-2-(1-(cyclohexylmethoxy)-6-fluoro-2-naphthamido)-3,3-dimethylbutanoic Acid] | 1800 nM | 94.7% | C (“C” refers to AUC @10 uM <4)
CC(C)Oc1ccc2c(OCc3ccc(C(F)(F)F)cc3)c(C(=O)N[C@H](C(=O)O)C(C)(C)C)ccc2c1 [Example 260, (2S)-2-[[6-isopropoxy-1-[[4-(trifluoromethyl)phenyl]methoxy]naphthalene-2-carbonyl]amino]-3,3-dimethyl-butanoic Acid] | 1500 nM | 70.2% | C (“C” refers to AUC @10 uM <4)
CC(C)(C)[C@H](NC(=O)c1ccc2ccc(-c3cscn3)cc2c1OCc1ccc(C(F)(F)F)cc1)C(=O)O [Example 243, (2S)-3,3-dimethyl-2-[[7-thiazol-4-yl-1-[[4-(trifluoromethyl)phenyl]methoxy]naphthalene-2-carbonyl]amino]butanoic Acid] | 500 nM | 159% | A (“A” refers to AUC @10 uM >6)
CC1(C(NC(=O)c2ccc3cc(F)ccc3c2OCc2ccc(S(F)(F)(F)(F)F)cc2)C(=O)O)CCCCC1 (stereo not drawn) [Example 50, 2-(6-fluoro-1-((4-(pentafluoro-16-sulfanyl)benzyl)oxy)-2-naphthamido)-2-(1-methylcyclohexyl)acetic Acid] | 400 nM | 57.8% | C (“C” refers to AUC @10 uM <4)
CC(C)(C)[C@H](NC(=O)c1ccc2ccccc2c1OCc1ccc(C(F)(F)F)cc1)C(=O)O [Example 74] | 800 nM | 216% | A (“A” refers to AUC @10 uM >6)
CC(C)(c1ccccc1)[C@H](NC(=O)c1ccc2ccccc2c1OCc1ccc(SC(F)(F)F)cc1)C(=O)O [Example 5, (S)-3-methyl-3-phenyl-2-(1-((4-((trifluoromethyl)thio)benzyl)oxy)-2-naphthamido)butanoic Acid] | 800 nM | 100% | C (“C” refers to AUC @10 uM <4)
CC(c1ccccc1)C(NC(=O)c1ccc2ccccc2c1OCc1ccc(C(F)(F)F)cc1)C(=O)O (stereo not drawn) [Example 127, 3-phenyl-2-(1-((4-(trifluoromethyl)benzyl)oxy)-2-naphthamido)butanoic Acid] | 1100 nM | 98.5% | C (“C” refers to AUC @10 uM <4)
C#CC(C)(C)C(NC(=O)c1ccc2ccccc2c1OCc1ccc(OC(F)(F)F)cc1)C(=O)O (stereo not drawn) [Example 234, 3,3-dimethyl-2-[[1-[[4-(trifluoromethoxy)phenyl]methoxy]naphthalene-2-carbonyl]amino]pent-4-ynoic Acid] | 1300 nM | 140% | A (“A” refers to AUC @10 uM >6)
O=C(N[C@H](C(=O)O)C(c1ccccc1)c1ccccc1)c1ccc2cc(F)ccc2c1OCc1ccc(C(F)(F)F)cc1 [Example 196] | 300 nM | 101% | C (“C” refers to AUC @10 uM <4)
CCC(C)(C)[C@H](NC(=O)c1ccc2ccc(C(F)F)cc2c1OCc1ccc(OC(F)(F)F)cc1)C(=O)O [Example 250, (2S)-2-[[7-(difluoromethyl)-1-[[4-(trifluoromethoxy)phenyl]methoxy]naphthalene-2-carbonyl]amino]-3,3-dimethyl-pentanoic Acid] | 100 nM | 270% | A (“A” refers to AUC @10 uM >6)
CCCC(C)(CC)[C@H](NC(=O)c1ccc2ccc(Cl)cc2c1OCc1ccc(C(F)(F)F)cc1)C(=O)O (stereo partly drawn) [Example 255, (2S)-2-[[7-chloro-1-[[4-(trifluoromethyl)phenyl]methoxy]naphthalene-2-carbonyl]amino]-3-ethyl-3-methyl-hexanoic Acid] | 100 nM | 324% | A (“A” refers to AUC @10 uM >6)
CCC(C)(C)C(NC(=O)c1ccc2ccc(C)cc2c1OCc1ccc(OC(F)(F)F)cc1)C(=O)O (stereo not drawn) [Example 276, 3,3-dimethyl-2-(7-methyl-1-((4-(trifluoromethoxy)benzyl)oxy)-2-naphthamido)pentanoic Acid] | 300 nM | 309% | A (“A” refers to AUC @10 uM >6)
